The target of test [1] is T1, human Glucagon-R (Homo sapiens, UniProt P47871).
T1 construct: expressed in transfected cells
Briefly: Glucagon receptor efficacy assay (cAMP, HEK293 cells). Also: crude peptides with purity of less than 90%. The test is classed as cell-based. Conditions: read-out: GLUR EC50. The protocol:
(§1) The 5′-end primers additionally encoded a near Kozak consensus sequence to ensure efficient translation.
(§2) 48 hr after transfection cells were seeded for limited dilution cloning and selected with 1 mg/ml G418 in the culture medium.
(§3) On the day of analysis, growth medium was removed and the cells washed once with 200 μl Tyrode buffer. Cells were incubated in 100 μl Tyrode buffer containing increasing concentrations of test peptides, 100 μM IBMX, and 6 mM glucose for up 15 min at 37° C. The reaction was stopped by addition of 25 μl 0.5 M HCl and incubated on ice for 60 min. The cAMP content was estimated using the FlashPlate® cAMP kit from Perkin-Elmer.

Test [2] addresses T2, human GLP-1-R (Homo sapiens, UniProt P43220).
T2 construct: expressed in transfected cells
Briefly: GLP-1 receptor efficacy assay (cAMP, HEK293 cells). As to EC50: crude peptides with purity of less than 90%. Format: cell-based. The protocol: as §1, §2, §3

Test [3] relates to primary rat adipocytes. Format: cell-based. The protocol: Adipocytes were isolated from epididymal fat dissected from normal young adult Sprague-Dawley rats. The fat lumps were minced, incubated and shaken (220 rpm) with collagenase (1 mg/ml) in Krebs-Ringer buffer containing 4% BSA (KRB-BSA) for 60 minutes at 37° C. The suspension was filtered through a nylon filter (160 μm pore size) and the filtrate centrifuged at 200×g for 3 min. The subjacent medium beneath the upper floating layer of adipocytes was removed with a Pasteur-pipette. The adipocytes were washed 3 times in KRB-BSA buffer by re-suspension and centrifugation. The adipocytes were re-suspended in KRB-BSA, mixed, incubated in and shaken with test compounds in 96-deep well plates (50,000 cells/well) in a total volume of 1 ml at 37° C. for 60 min. The plates were placed on ice for at least 10 min after incubation followed by centrifugation at 200×g for 3 min. 300 μl of the buffer beneath the adipocyte layer were collected in a 96-deep well plate. This process was repeated two more times and the 3 extracts collected from each culture pooled together.

Test [4] has as its system diet induced obese (DIO) mice. In words: 28 day treatment of diet induced obese (DIO) mice: body weight and plasma cholesterols. The test is classed as in vivo. The protocol: Four weeks before drug treatments, C57Bl/6 male mice (7 weeks) (N=9-12 animals in each group) were put on high fat diet (HFD) and their day-night cycle reversed with lights On/Off at 2000/0800 hour. Experimental animals were conditioned to treatment by daily injections (s.c.) of 0.1 ml vehicle and acclimatized to handling by weighing them twice a week one week before start of drug administrations. […] Animals were fasted overnight before sacrifice. An eye blood sample (0.6 ml EDTA) was obtained the following morning immediately before cervical dislocation. Blood plasma samples were stored at −80° C. until analyzed for cholesterol, HDL and LDL using commercially available kits. Body weight gain throughout the treatment period was calculated for each animal by subtracting its weight at the initiation of treatment.
The effects of treatment on body weight gain and cholesterols were assessed by 2-way ANOVA with repeated measures and Bonferoni post-hoc analyses, using GraphPad Prism version 4. Differences were considered significant at the 0.05 level.

In test [5] the test system is db/db mice. In words: Oral glucose tolerance test (OGTT) in db/db mice. The test is classed as in vivo. The conditions noted are these: i.p., 45 nmol/kg. The protocol: The animals were kept fasted during the experiment to prevent confounding food intake. Fifteen minutes later an oral dose of glucose (1 g/kg in 5 ml/kg) was given and BG levels were measured at t=30 min, t=60 min, t=120 min and t=240 min.
Difference from baseline (t=0) was calculated for each time point and AUC0-240 min values were determined. Statistical analyses of AUC values by one-way ANOVA and Dunnetts post-hoc analyses were performed with GraphPad Prism version 4. Differences were considered significant at the p<0.05 level.

The subject of test [6] is C57Bl/6 mice. Briefly: Food intake in normal mice. The test is classed as in vivo. The conditions noted are these: fasted mice, s.c.; PYY3-36 30 nmol/kg, glucagon 500 nmol/kg, ZP2663 500 nmol/kg.
Procedure: One week before study C57Bl/6 mice (8 weeks) (N=9-12 animals in each group) were conditioned to treatment by daily injections (s.c.) of 0.2 ml vehicle and acclimatized to handling by weighing them twice a week. Mice were stratified one day before start of experiment into groups with similar body weight (BW). […] After one hour pre-weighed food was introduced to the mice and food intake measured by weighing the remaining food after one hour and expressed relative to body weight (mg food/g BW). Statistical analyses of food intake data by one-way ANOVA and Dunnetts post-hoc analyses were performed with GraphPad Prism version 4. Differences were considered significant at the 0.05 level.

Broadly, the EC50 is the concentration at which the effect is half-maximal.

T2 sequence (P43220 24-463): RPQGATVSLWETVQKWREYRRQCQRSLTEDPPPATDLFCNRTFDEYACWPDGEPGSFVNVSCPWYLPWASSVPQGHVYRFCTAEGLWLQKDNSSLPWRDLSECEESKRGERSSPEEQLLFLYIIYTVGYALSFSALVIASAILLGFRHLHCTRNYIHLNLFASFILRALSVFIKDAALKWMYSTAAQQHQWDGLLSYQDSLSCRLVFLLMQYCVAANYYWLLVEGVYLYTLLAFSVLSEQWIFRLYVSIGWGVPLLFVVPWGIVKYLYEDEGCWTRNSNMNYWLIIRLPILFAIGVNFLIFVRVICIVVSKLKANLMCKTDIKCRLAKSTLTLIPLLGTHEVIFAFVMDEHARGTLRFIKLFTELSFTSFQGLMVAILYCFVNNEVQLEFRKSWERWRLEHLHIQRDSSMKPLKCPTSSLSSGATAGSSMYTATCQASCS
T1 sequence (P47871 26-477): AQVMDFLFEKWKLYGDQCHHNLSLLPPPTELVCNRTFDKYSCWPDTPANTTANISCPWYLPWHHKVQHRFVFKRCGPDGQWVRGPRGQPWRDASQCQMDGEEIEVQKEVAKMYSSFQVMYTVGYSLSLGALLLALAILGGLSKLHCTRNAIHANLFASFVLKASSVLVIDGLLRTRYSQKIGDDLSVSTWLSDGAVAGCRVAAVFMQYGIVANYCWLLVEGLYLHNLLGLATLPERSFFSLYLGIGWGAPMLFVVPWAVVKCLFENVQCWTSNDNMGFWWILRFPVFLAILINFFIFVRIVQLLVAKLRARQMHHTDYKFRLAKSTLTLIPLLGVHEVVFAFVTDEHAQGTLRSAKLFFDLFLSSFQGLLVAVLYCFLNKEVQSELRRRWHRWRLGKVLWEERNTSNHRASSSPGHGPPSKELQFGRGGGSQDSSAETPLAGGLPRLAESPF

Turning to `CC[C@H](C)[C@H](NC(=O)[C@H](Cc1ccccc1)NC(=O)[C@H](CC(=O)O)NC(=O)[C@H](CCC(N)=O)NC(=O)[C@H](C)NC(=O)[C@H](CCCNC(=N)N)NC(=O)[C@H](CCCNC(=N)N)NC(=O)[C@H](CO)NC(=O)[C@H](CC(=O)O)NC(=O)[C@H](CC(C)C)NC(=O)[C@H](Cc1ccc(O)cc1)NC(=O)[C@H](CCCCN)NC(=O)[C@H](CO)NC(=O)[C@H](Cc1ccc(O)cc1)NC(=O)[C@H](CC(=O)O)NC(=O)[C@H](CO)NC(=O)[C@@H](NC(=O)[C@H](Cc1ccccc1)NC(=O)[C@@H](NC(=O)CNC(=O)[C@H](CCC(N)=O)NC(=O)[C@H](CO)NC(=O)[C@@H](N)Cc1c[nH]cn1)[C@@H](C)O)[C@@H](C)O)C(=O)N[C@@H](CCC(=O)O)C(=O)N[C@@H](Cc1c[nH]c2ccccc12)C(=O)N[C@@H](CC(C)C)C(=O)N[C@@H](CC(C)C)C(=O)N[C@@H](CO)C(=O)N[C@@H](C)C(N)=O` [Compound L006-0090], the half-maximal effective concentration (EC50) in test [1] was 0.22 nM; in test [2] it was 0.15 nM.

As for `CC[C@H](C)[C@H](NC(=O)[C@H](Cc1ccccc1)NC(=O)[C@H](CC(=O)O)NC(=O)[C@H](CCCCN)NC(=O)[C@H](C)NC(=O)[C@H](CCCNC(=N)N)NC(=O)[C@H](CCCNC(=N)N)NC(=O)[C@H](CCC(=O)O)NC(=O)[C@H](CC(=O)O)NC(=O)[C@H](CC(C)C)NC(=O)[C@H](Cc1ccc(O)cc1)NC(=O)[C@H](CCCCN)NC(=O)[C@H](CO)NC(=O)[C@H](Cc1ccc(O)cc1)NC(=O)[C@H](CC(=O)O)NC(=O)[C@H](CO)NC(=O)[C@@H](NC(=O)[C@H](Cc1ccccc1)NC(=O)[C@@H](NC(=O)CNC(=O)[C@H](CCC(N)=O)NC(=O)[C@H](CO)NC(=O)[C@@H](N)Cc1c[nH]cn1)[C@@H](C)O)[C@@H](C)O)C(=O)N[C@@H](CCC(=O)O)C(=O)N[C@@H](Cc1c[nH]c2ccccc12)C(=O)N[C@@H](CC(C)C)C(=O)N[C@@H](CC(C)C)C(=O)N[C@@H](CO)C(=O)N[C@@H](C)C(N)=O` [ZP2663], in test [3], the concentration giving a half-maximal response (EC50) came to 4.4 nM and the “effect on lipolysis in primary adipocyte cultures (in words)” value was “equipotent with glucagon”. For the same molecule, the “body weight gain (in words)” value in test [4] (500 nmol/kg b.i.d. s.c., 28 days) is reported as “decreased body weight gain to a level similar to that observed with chow feeding”. Further, the “blood concentration of LDL cholesterol vs vehicle (in words)” value in test [4] (4 weeks b.i.d.) was “statistically significantly different from the vehicle group”. For the same molecule, the “fat deposition (in words)” value in test [4] (4 weeks treatment) is listed as “significantly decreased fat deposition”. Moreover, the “improvement of glucose tolerance” value in test [5] is reported as 64.9%. Also, the “glucose tolerance during OGTT (in words)” value in test [5] (AUC0-240 min) is “significantly improved glucose tolerance”. For the same molecule, the “food intake during the first hour (in words)” value in test [6] is on record as “significantly decreased food intake”.

For Exendin-4, the “EC50, stimulation of lipolysis in primary rat adipocyte cultures” value in test [3] (60 min, glycerol formed) was “No effect”. Further, the “GLP-1R agonist activity (in words)” value in test [2] was “very potent GLP-1R agonist”.

For “H-HSQGTFTSDYSKYLDDRRARDFIDWLLSA-NH2 [Compound L006-0093]”, the 50% effective concentration (EC50) in test [1] was 0.1 nM; in test [2], 0.07 nM.

Regarding “H-HSQGTFTSDYSKYLDERAAKDFIEWLLSA-NH2 [Compound L006-0108]”, the EC50 in test [1] was 0.81 nM; in test [2], 0.53 nM.

Take “H-HSQGTFTSDYSKYLDERRAKDFIDWLLSA-NH2 [Compound L006-0129]”: the figures for the concentration for a half-maximal effect (EC50) in test [1] and in test [2] were 0.24 nM and 0.2 nM, respectively.

Regarding “H-HSQGTFTSDYSKYLDERRAKDFIEWLLAA-NH2 [Compound L006-0136]”, the EC50 in test [1] was 0.33 nM; in test [2] it was 0.22 nM.

Consider “H-HSQGTFTSDYSKYLDERRAKDFIEWLLRA-NH2 [Compound L006-0138]”, for which the 50% effective concentration (EC50) was 0.38 nM in test [1] and 0.29 nM in test [2].

On to “H-HSQGTFTSDYSKYLDERRAKDFIQWLLSA-NH2 [Compound L006-0084]”, for which the 50% effective concentration (EC50) in test [1] was 0.13 nM; in test [2], 0.07 nM.

Regarding “H-HSQGTFTSDYSKYLDERRAKDFIRWLLSA-NH2 [Compound L006-0128]”, the concentration giving a half-maximal response (EC50) in test [1] is 0.22 nM; in test [2] it was 0.16 nM.

“H-HSQGTFTSDYSKYLDERRAQDFIEWLLSA-NH2 [Compound L006-0082]” registered a concentration giving a half-maximal response (EC50) in test [2] of 0.09 nM.

With “H-HSQGTFTSDYSKYLDKRRAEDFIKWLLSA-NH2 [Compound L006-0094]”, the concentration for a half-maximal effect (EC50) in test [1] was found to be 0.25 nM; in test [2], 0.16 nM.

For “H-HSQGTFTSDYSKYLDSRRAKDFIEWLLSA-NH2 [Compound L006-0081]”, the figures for the concentration for a half-maximal effect (EC50) in test [1] and in test [2] were 0.23 nM and 0.14 nM, respectively.

As to “PYY(3-36): internal positive control for food intake (anorectic peptide) [reference compound]”, the “food intake during the first hour (in words)” value in test [6] was “anorectic effect”.

For the origin of these results see US8680049B2 (Zealand Pharma A/S, priority 2008, dated 2014).
